Assay results published in patent US20190135755A1, “CRYSTAL POLYMORPHISM OF KCNQ2-5 CHANNEL ACTIVATOR” (ONO PHARMACEUTICAL CO., LTD., priority 2016, published 2019).
≈ marks a conversion by molar mass, not a printed value.

Legend:
[1] = Chemical stability test of crystal form under storage conditions; type: physicochemical; conditions: all storage conditions, compared with the sample
Description: The stability of the crystal form of the present invention was examined under various storage conditions. After storage, the residual ratio (%) of each of the samples stored under the respective conditions with respect to the area percentage of the sample stored at −20° C. was calculated by HPLC. Further, by using a powder X-ray diffraction spectrum, peaks were compared with those of the sample. The appearance was observed by visual inspection and compared with that of the sample.
<Storage Conditions and Sampling Time>
25° C.-60% RH (opened): 3 months
40° C.-75% RH (opened): 3 months
2500 Lux: 20D (shading, transparent)

Human KCNQ2/3 = biological target: T1, Human KCNQ2/3 (Homo sapiens, UniProt O43525+O43526); experiment: Opening action with respect to KCNQ2/3 channel by depolarization stimulation (thallium influx, FLIPR); type: cell-based; conditions: human KCNQ2/3 expressing CHO-DHFR- cells; concentration giving 50% of maximum reaction of retigabine (10 μM); 5 mM potassium and 0.5 mM thallium; read-out: opening action (ECrtg50 value) with respect to the KCNQ2/3 channel
T1 construct: expressed in transfected cells; host or cells: CHO-DHFR- cells
Description: Human KCNQ2/3 expression cells (CHO-DHFR-cells) were seeded in each well of a 384-well plate (collagen-coated, black, clear bottom) at 0.5×10^4 cells/50 μL per well and cultured in a MEM ALPHA medium (containing 10 vol % inactivated (56° C., 30 min) fetal bovine serum, 100 IU/mL penicillin, 100 μg/mL streptomycin, and 2 mM L-glutamine) at 37° C. in 5% CO2 for 18 to 24 hours. After the medium in the plate was removed, incubation (room temperature, 60 minutes, shading) was performed in a loading buffer (prepared by the method described in the manual of FluxOR Thallium Detection Kit (Invitrogen, F10016, F10017)). A KCNQ2/3 channel opening action (thallium influx into cells) by depolarization stimulation (5 mM potassium and 0.5 mM thallium) was measured by FLIPR TETRA (Molecular Devices). The compound I was treated 5 minutes before the depolarization stimulation, and the reaction induced by the depolarization stimulation was measured over time for 180 seconds. The channel opening action of the compound I was evaluated based on the change amount of the fluorescence intensity from the time before the depolarization stimulation to the time after the elapse of 180 seconds, and the concentration (ECrtg50) satisfying 50% of the fluorescence intensity change of a maximum reaction (in the treatment at 10 μM) of retigabine under the conditions of this experiment was calculated.

Solubility test = type: physicochemical; conditions: aqueous buffer, kinetic from dmso stock, Japanese Pharmacopoeia dissolution test second solution (pH 6.8), room temperature, quantification range 5 to 100 μM
Description: A calibration curve solution was prepared at 0.1, 0.4, and 2 μM by diluting a test substance (a 10 mM DMSO solution) with acetonitrile and adding acetonitrile containing an internal standard substance (candesartan).
A sample solution was prepared as follows. 5 μL of the compound I (a 10 mM DMSO solution) was added to 495 μL of the Japanese Pharmacopoeia dissolution test second solution (pH: 6.8), followed by stirring at room temperature for 5 hours. Then, the solution was transferred to a solubility filter plate and subjected to suction filtration. The filtrate (20 μL) was diluted with acetonitrile, followed by adding acetonitrile containing an internal standard substance (candesartan).
Each of the calibration curve and sample solutions (5 μL) was injected into LC-MS/MS (Discovery Max, manufactured by Thermo Scientific, Inc.) and subjected to quantification (quantification range: 5 to 100 μM). The solubility in the case where the value equal to or less than the quantification range was obtained was defined as <5 μM, and the solubility in the case where the value equal to or more than the quantification range was obtained was defined as […].

[2] = Water vapor adsorption/desorption isotherm measurement; type: physicochemical; conditions: 25° C., relative humidity of 50% RH or more, based on mass when dried (0% RH)
Description: (3) Water Vapor Adsorption/Desorption Isotherm Measurement
Device: DVS Intrinsic, manufactured by SMS Co., Ltd.
Change in relative humidity: 0% to 95% (5% STEP)
STEP transition criterion: percent change in weight: 0.002%/min
A change in mass when the humidity was changed in a stepwise manner (relative humidity: from 0% RH to 95% RH) at 25° C. was recorded over time, and an equilibrium mass at each humidity was determined. Subsequently, based on the mass when dried (0% RH), the percent change in mass at each humidity and the hydration number were determined.

hERG channel = biological target: T2, hERG channel (Homo sapiens, UniProt Q12809); experiment: Evaluation of action on hERG IKr current (patch-clamp); type: cell-based; conditions: HEK293 cells overexpressing hERG, maximum tail current, 10 minutes after application, read-out: 50% hERG channel inhibitory activity
T2 construct: expressed in transfected cells; host or cells: HEK293 cells
Description: By using HEK293 cells overexpressing a human ether-a-go-go-related gene (hERG), the maximum tail current of the hERG IKr current induced by redepolarization pulse subsequent to depolarization pulse was measured by a patch-clamp method. The percent change (suppression rate) after 10 minutes from application of a test substance with respect to the maximum tail current before the application of the test substance was calculated (see, Biophysical Journal, vol. 74, pp. 230-241 (1998)).

[3] = tested on: bladder extracted from rat; experiment: Relaxing action on bladder extracted from rat (Magnus test, carbachol contraction); conditions: concentration at which percent change in tension is −20%; carbachol 1 μM contraction; female Wistar rat bladder strip
Description: Female Jcl:Wistar rats (CLEA Japan, Inc., body weight at use: 170 to 200 g) were anesthetized by intraperitoneal administration of about 40 mg/kg of pentobarbital (Somnopentyl, Schering Plough Animal Health Corporation), and killed by bloodletting. The bladder was extracted by abdominal incision and immediately thereafter immersed in ice-cooled Krebs buffer (Krebs Ringer bicarbonate buffer (Sigma-Aldlich Co. LLC) supplemented with sodium hydrogen carbonate (final concentration: 15 mM) and calcium chloride (final concentration: 2.5 mM)) saturated with a mixed gas (95% O2, 5% CO2).
The bladder body extracted from each rat was cut into an oblong strip shape (about 10×3 mm), whereby a specimen was prepared on ice. Immediately thereafter, the specimen was suspended in a Magnus tube filled with Krebs buffer (37° C.) bubbled with the mixed gas while applying a tension load of 500 mg thereto. Incidentally, the specimen was prepared within 24 hours after extracting the tissue. […]
The tension (mg) in the extracted bladder was used as an evaluation item. The tension was read using analysis software WAVE THERMO 1000. […] The percent change in tension (%) is calculated according to the following formula. […]
The value at which the percent change in tension (%) was −20% was calculated as IC20 and used as an index of the relaxing action on the extracted bladder.

[4] = Evaluation of stability in human liver microsomes; type: in vitro ADME; conditions: 0.5 mg/mL human liver microsomes, NADPH, 37° C., 15 minutes, 5 μmol/L
Description: A test compound (a 10 mmol/L DMSO solution, 5 μL) was diluted with a 50% aqueous acetonitrile solution (195 μL), whereby a 0.25 mmol/L solution was prepared.
To a reaction vessel preheated to 37° C., 0.5 mg/mL of human liver microsomes (XenoTech, LLC) and 245 μL of a 0.1 M phosphate buffer solution (pH 7.4) containing NADPH co-factor (BD Biosciences) were added, followed by preincubation for 5 minutes, and thereafter, the above-prepared test compound solution (5 μL) was added thereto to start a reaction (final concentration: 5 μmol/L). Immediately after the start, a 20 μL portion was collected and added to 180 μL of acetonitrile containing an internal standard substance (warfarin) to stop the reaction. A 20 μL portion of this solution was stirred with 180 μL of a 50% aqueous acetonitrile solution on a plate equipped with a deproteinization filter, followed by suction filtration, and the filtrate was used as a standard sample.
After the above-prepared reaction solution was incubated at 37° C. for 15 minutes, a 20 μL portion of the solution was added to 180 μL of cooled acetonitrile (containing warfarin serving as an internal standard substance) to stop the reaction. […]
A residual ratio (%) was calculated as follows. […]

T1 sequence (O43526 whole entry): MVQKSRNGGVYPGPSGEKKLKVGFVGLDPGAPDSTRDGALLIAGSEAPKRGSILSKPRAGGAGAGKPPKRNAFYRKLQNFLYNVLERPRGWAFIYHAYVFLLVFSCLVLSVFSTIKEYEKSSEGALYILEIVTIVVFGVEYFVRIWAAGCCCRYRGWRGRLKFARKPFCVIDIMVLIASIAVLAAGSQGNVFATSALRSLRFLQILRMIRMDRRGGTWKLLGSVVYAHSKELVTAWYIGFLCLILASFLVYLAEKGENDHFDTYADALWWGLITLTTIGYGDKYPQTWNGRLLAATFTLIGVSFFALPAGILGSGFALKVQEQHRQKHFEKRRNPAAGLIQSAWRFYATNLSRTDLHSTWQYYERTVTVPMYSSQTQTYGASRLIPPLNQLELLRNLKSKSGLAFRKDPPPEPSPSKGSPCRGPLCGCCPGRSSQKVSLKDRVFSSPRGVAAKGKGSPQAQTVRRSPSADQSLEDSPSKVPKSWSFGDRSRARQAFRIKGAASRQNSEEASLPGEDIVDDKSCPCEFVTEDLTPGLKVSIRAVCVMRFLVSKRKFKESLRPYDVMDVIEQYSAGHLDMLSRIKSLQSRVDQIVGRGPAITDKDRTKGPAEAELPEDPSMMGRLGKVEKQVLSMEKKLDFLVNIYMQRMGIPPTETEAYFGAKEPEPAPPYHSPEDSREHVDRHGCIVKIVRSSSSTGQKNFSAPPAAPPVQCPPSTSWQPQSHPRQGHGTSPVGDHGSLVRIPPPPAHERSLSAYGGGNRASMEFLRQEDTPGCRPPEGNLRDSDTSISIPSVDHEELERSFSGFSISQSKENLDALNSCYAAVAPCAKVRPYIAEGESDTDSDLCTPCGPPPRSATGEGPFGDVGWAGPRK
T1 sequence (O43525 whole entry): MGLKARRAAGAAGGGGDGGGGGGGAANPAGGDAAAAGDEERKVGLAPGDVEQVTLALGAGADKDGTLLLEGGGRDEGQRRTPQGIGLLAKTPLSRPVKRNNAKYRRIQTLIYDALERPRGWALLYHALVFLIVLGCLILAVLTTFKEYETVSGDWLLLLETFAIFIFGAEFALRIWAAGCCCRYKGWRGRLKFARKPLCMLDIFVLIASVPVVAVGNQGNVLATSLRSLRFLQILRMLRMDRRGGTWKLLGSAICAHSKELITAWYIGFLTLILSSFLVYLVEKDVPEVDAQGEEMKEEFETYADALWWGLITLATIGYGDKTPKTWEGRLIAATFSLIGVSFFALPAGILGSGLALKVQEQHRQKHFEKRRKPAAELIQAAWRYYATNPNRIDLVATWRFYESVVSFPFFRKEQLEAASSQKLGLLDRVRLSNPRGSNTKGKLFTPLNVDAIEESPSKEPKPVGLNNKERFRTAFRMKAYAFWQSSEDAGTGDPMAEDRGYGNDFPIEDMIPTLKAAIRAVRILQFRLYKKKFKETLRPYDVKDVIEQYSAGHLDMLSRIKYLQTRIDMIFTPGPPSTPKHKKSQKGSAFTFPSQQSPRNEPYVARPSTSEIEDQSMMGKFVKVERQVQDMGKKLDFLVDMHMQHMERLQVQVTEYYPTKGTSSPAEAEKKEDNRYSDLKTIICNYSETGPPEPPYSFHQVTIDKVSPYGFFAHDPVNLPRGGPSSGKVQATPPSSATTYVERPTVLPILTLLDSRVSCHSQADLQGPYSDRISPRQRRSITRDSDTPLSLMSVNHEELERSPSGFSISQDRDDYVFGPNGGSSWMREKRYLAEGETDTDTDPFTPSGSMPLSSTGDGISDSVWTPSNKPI
T2 sequence (Q12809 whole entry): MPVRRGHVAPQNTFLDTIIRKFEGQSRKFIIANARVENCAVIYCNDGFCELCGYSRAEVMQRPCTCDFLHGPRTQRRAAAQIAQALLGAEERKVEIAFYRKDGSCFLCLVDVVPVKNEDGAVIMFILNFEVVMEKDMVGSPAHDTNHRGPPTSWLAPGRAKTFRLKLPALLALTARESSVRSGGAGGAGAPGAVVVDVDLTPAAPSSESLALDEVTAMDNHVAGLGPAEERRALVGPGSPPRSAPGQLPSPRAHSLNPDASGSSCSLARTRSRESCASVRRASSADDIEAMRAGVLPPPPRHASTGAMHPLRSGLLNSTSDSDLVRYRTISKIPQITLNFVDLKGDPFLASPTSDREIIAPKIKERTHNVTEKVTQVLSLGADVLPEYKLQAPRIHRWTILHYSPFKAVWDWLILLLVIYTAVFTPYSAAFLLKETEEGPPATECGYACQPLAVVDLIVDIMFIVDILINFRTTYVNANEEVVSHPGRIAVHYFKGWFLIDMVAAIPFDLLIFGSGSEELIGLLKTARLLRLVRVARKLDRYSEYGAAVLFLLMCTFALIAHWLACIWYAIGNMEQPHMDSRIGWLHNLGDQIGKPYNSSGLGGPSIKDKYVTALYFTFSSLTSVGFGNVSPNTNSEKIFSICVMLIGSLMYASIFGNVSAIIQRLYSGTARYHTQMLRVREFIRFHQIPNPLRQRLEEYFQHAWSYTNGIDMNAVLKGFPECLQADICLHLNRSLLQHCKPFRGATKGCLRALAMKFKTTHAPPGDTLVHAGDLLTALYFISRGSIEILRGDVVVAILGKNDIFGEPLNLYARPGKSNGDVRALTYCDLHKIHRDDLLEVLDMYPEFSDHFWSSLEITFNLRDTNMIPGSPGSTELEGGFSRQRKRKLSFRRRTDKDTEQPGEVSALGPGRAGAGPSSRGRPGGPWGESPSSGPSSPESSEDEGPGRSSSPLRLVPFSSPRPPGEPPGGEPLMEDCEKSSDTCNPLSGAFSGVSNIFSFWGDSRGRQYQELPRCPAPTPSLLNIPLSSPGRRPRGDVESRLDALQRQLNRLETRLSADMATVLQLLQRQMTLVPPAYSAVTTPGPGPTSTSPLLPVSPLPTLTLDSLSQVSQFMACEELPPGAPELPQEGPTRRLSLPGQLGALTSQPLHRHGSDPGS

In the case of C[C@](O)(c1cc(Cl)c(NC(=O)NCc2ccc(Cl)cn2)c(Cl)c1)C(F)(F)F [A crystal, A crystal of 1-[(5-chloro-2-pyridinyl)methyl]-3-{2,6-dichloro-4-[(2S)-1,1,1-trifluoro-2-hydroxy-2-propanyl]phenyl}urea], the “appearance after storage (visual inspection)” value [1] is reported as “a change in appearance was not observed” and the “powder X-ray diffraction spectrum after storage” value [1] is reported as “an increase in the number of peaks was not observed”.
In the case of CC(O)(c1ccc(NC(=O)NCc2ccc(C(F)(F)F)cn2)cc1)C(F)(F)F (centres unmarked) [Comparative Example 1, 1-[4-(1,1,1-trifluoro-2-hydroxy-2-propanyl)phenyl]-3-{[5-(trifluoromethyl)-2-pyridinyl]methyl}urea], the EC50 (Human KCNQ2/3) is reported as > 10000 nM.
For O=C(Cc1ccc(F)cc1)Nc1c(Cl)cc(Cl)cc1Br [Comparative Example 2, N-(2-bromo-4,6-dichlorophenyl)-2-(4-fluorophenyl)acetamide, reference compound], the solubility at 5 h (Solubility test) was < 5 µM and the EC50 (Human KCNQ2/3) was 200 nM.
For C[C@](O)(c1cc(Cl)c(NC(=O)NCc2ccc(Cl)cn2)c(Cl)c1)C(F)(F)F.O [H crystal, Crystal of hydrate (H crystal) of 1-[(5-chloro-2-pyridinyl)methyl]-3-{2,6-dichloro-4-[(2S)-1,1,1-trifluoro-2-hydroxy-2-propanyl]phenyl}urea], the “percent change in mass” value [2] was 4%.
With C[C@](O)(c1cc(Cl)c(NC(=O)NCc2ccc(Cl)cn2)c(Cl)c1)C(F)(F)F [compound I, 1-[(5-chloro-2-pyridinyl)methyl]-3-{2,6-dichloro-4-[(2S)-1,1,1-trifluoro-2-hydroxy-2-propanyl]phenyl}urea] the IC50 (hERG channel) was > 10000 nM, the solubility at 5 h (Solubility test) was 98 µM (≈ 43.4 µg/mL) and the EC50 (Human KCNQ2/3) was 600 nM. The IC20 [3] was 500 nM and the “residual ratio (stability against human liver microsomes)” value [4] was 87%.
